This note sets out measurements from patent EP0664121A1, “Inhibition of ldl oxidation and atherosclerosis” (ELI LILLY AND COMPANY, priority 1993, dated 1995).

Experiment [1] relates to LDL. The experiment can be described thus: Thiobarbituric acid assay of copper-induced LDL peroxidation. In kind it is biochemical. The following applies: 250 µg LDL in 1 ml, 5 µM CuSO₄, 5-18 hrs at 37 degrees C. Here is the method:
The thiobarbituric acid assay as described by Schuh et al., (PNAS 75: 3173, 1978) and modified by Morel et al., (Lab Invest 55: 419, 1986) was used to determine the degree of inhibition of LDL peroxidation by estradiol and Compound A of the invention. A 1 ml solution containing 250 micrograms (µg) of LDL with either estradiol or Compound A of the invention in amounts varying from 1-30 µM is incubated for 5-18 hrs at 37 degrees C in the presence of 5 µM CuSO₄. Following incubation, 1 ml of 25% trichloroacetic acid and 1 ml of 1% thiobarbituric acid is added. All samples are boiled for 45 minutes and fluorescence is measured at 515 nm excitation and 553 nm emission wavelengths. (Compound A is a compound of formula 1 wherein R₁ and R₃ are hydrogen, and R₂ is 1-pyrrolidino).

The test system of experiment [2] is Resident macrophages from the mouse peritoneal cavity. In words: Macrophage-mediated oxidation (cellular modification) of LDL, TBAR values. In kind it is cell-based. The following applies: LDL 1 mg/ml, 24 hrs, media-alone value subtracted. As for the experimental part: Resident macrophages from the mouse peritoneal cavity were plated at 1 x 10⁶ cells per well in F10 media without serum. […] The wells designated media alone represents LDL incubated overnight on the same plate with F10 media without cells. This value was subtracted from the TBAR values obtained in the presence of resident macrophages and reflects the extent of cellular modification of LDL.

On to `O=C(c1ccc(OCCN2CCCC2)cc1)c1c(-c2ccc(O)cc2)sc2cc(O)ccc12` [Compound A], for which the “TBAR Units” value in experiment [1] (1µM compound) is 142 TBAR UNITS; in experiment [1] (5µM compound) it was 109 TBAR UNITS; in experiment [1] (25µM compound), 78 TBAR UNITS; in experiment [2] (1 µM compound), 129 TBAR Units; in experiment [2] (2.5 µM compound), 75 TBAR Units; in experiment [2] (5 µm compound) it was 30 TBAR Units.
On to `C[C@]12CC[C@@H]3c4ccc(O)cc4CC[C@H]3[C@@H]1CC[C@@H]2O` [Estradiol, estradiol, reference compound], for which, in experiment [2] (25 µM compound), the “TBAR Units” value turned out to be 30 TBAR Units.
